Experimental data taken from PMC5781335, “Identification of danthron as an isoform-specific inhibitor of HEME OXYGENASE-1/cytochrome P450 reductase interaction with anti-tumor activity” (Journal of Biomedical Science, 2018).
One block for each molecule: values may come before it.

Key:
heme oxygenase-1 (HO-1) [1] = target: T1, heme oxygenase-1 (HO-1) (Homo sapiens, UniProt P09601); test: cell-based BRET inhibition of HO-1/CPR interaction in HEK293T
T1 construct: gene HMOX1; Luc-HO-1 (N-terminal luciferase fusion); with cytochrome P450 reductase (CPR-GFP)
T1 sequence (P09601 1-288): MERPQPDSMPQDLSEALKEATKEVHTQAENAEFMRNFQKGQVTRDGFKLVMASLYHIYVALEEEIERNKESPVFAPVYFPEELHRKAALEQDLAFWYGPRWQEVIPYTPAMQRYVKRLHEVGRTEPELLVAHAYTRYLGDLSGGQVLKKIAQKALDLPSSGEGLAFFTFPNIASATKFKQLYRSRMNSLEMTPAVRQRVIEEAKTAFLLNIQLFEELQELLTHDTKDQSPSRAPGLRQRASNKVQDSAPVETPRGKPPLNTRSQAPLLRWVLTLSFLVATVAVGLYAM
T1 sequence (P16435 2-677 partner): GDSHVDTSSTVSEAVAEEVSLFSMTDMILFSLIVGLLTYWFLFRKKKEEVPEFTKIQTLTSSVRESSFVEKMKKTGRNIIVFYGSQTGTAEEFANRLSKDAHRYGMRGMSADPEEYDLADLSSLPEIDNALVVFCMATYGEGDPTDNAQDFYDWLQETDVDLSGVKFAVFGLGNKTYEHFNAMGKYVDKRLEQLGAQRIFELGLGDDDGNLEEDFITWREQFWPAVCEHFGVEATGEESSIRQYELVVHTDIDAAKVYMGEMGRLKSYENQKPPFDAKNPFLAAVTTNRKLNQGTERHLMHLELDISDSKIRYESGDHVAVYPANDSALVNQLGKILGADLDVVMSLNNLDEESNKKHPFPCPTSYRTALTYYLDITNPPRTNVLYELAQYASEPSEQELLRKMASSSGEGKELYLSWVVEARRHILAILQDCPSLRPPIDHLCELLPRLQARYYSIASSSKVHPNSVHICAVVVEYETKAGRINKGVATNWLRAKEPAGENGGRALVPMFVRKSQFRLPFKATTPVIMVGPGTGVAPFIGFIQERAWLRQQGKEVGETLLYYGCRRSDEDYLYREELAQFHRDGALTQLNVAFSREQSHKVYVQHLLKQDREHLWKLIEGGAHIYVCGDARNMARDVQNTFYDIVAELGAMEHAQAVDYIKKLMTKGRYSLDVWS

heme oxygenase-1 (HO-1) [2] = target: T2, heme oxygenase-1 (HO-1) (Homo sapiens, UniProt P09601); test: pull-down of purified His-HO-1 by resin-bound CPR-GFP ([…] danthron); IC50 from cell-based BRET
T2 construct: gene HMOX1; truncated human HO-1 (aa 13–260), C-terminal 6 x His-tag (pull-down); Luc-HO-1 (BRET); with cytochrome P450 reductase (CPR-GFP)
T2 sequence (P09601 13-260): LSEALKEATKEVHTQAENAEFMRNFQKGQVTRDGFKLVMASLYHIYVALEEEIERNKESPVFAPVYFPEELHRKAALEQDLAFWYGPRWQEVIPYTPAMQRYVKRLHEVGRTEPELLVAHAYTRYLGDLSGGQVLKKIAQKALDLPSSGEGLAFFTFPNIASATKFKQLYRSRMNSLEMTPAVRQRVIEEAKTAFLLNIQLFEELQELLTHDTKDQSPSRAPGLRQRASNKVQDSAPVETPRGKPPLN
T2 sequence (P16435 2-677 partner): T1 sequence (P16435 2-677 partner)

[3] = target: T3, CPR construct with its carboxyl-terminus fused to GFP (CPR-GFP) (human, UniProt P16435 1-677); test: pull-down; CPR-GFP immunoprecipitated from HEK293T lysate on anti-GFP-affinity Sepharose, washed, incubated with 1 ug His-HO-1 or His-HO-2 in 100 ul buffer A (20 mM Tris-HCl pH 7.4, 100 mM NaCl) at room temperature for 1 h, without or with 10 uM danthron or anthrarufin; blot with anti-His and anti-GFP; conditions: both partners purified
T3 construct: human cytochrome P450 reductase (CPR) cDNA subcloned with GFP2 cDNA into a pCMV-2 vector; BRET acceptor; bait on anti-GFP Sepharose in the pull-down; also called cytochrome P450 reductase; source: HEK293T, transfected; not shown: GFP2, C-terminal, kept
T3 sequence (looked up): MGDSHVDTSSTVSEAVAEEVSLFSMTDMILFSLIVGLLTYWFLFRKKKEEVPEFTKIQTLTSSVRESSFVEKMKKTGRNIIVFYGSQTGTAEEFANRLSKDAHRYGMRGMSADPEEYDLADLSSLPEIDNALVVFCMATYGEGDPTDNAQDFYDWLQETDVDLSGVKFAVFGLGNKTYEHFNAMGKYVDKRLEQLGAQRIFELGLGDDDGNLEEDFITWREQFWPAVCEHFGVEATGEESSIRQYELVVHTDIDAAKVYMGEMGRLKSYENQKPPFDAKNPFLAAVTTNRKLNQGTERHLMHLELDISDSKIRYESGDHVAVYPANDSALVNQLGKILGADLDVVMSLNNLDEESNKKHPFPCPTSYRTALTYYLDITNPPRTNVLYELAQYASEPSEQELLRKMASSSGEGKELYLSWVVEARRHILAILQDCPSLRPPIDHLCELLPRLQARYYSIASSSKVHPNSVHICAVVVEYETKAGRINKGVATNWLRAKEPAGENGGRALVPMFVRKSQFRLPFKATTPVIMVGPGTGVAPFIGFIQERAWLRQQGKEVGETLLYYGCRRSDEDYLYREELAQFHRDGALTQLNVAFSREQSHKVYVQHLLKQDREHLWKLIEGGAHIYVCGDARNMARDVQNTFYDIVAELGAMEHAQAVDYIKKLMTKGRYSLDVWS

- IC50 (heme oxygenase-1 (HO-1) [1]): 10.4 µM
Molecule: O=C1c2cccc(O)c2C(=O)c2c(O)ccc(O)c21 [1,4,5-trihydroxyanthra-9,10-quinone]

- IC50 (heme oxygenase-1 (HO-1) [1]): 10.1 µM
Molecule: O=C1c2ccccc2C(=O)c2c(O)cccc21 [1-hydroxyanthra-9,10-quinone]

- IC50 (heme oxygenase-1 (HO-1) [2]): 2.09 µM
Molecule: O=C1c2cccc(O)c2C(=O)c2c(O)cccc21 [danthron]

- binding result [3]: binds
B1: recombinant soluble His-tagged HO-2 (His-HO-2), human HO-2 construct (aa 33-288) (domain or fragment, UniProt P30519 33-288, looked up)
chain: LSELLKEGTKEAHDRAENTQFVKDFLKGNIKKELFKLATTALYFTYSALEEEMERNKDHPAFAPLYFPMELHRKEALTKDMEYFFGENWEEQVQCPKAAQKYVERIHYIGQNEPELLVAHAYTRYMGDLSGGQVLKKVAQRALKLPSTGEGTQFYLFENVDNAQQFKQLYRARMNALDLNMKTKERIVEEANKAFEYNMQIFNELDQAGSTLARETLEDGFPVHDGKGDMRKCPFYAAEQDKGALEGSSCPFRTAM
notes: human heme oxygenase-2, construct aa 33-288, in pQE-60 vector; not shown: His6, C-terminal, kept
